{"source": "patent US9718772B2", "about": "“Crystalline (3Z,5S)-5-(hydroxymethyl)-1-[(2′-methyl-1,1′-biphenyl-4-yl)carbonyl]pyrrolidin-3-one O-methyloxime, and methods of using the same” (ObsEva SA, priority 2014, dated 2017)", "format_in_all_cases": "physicochemical", "key": {"[1]": {"experiment": "Vacuum-drying of the crystalline compound, XRPD comparison (FIG. 2)", "details": "vacuum-drying at about 45° C. for about 65 hours; crystallized from diethyl ether", "description": "“After crystallization” means after preparation of the solid and drying at ambient temperature to about 45° C.\n23 mg of the solid was then further vacuum-dried at 45° C. for an additional 65 hours. The resulting solid was analyzed by XRPD and confirmed to be the crystalline compound."}, "[2]": {"experiment": "Comparative stability study: slurries stirred in pH 7 phosphate buffer (USP) at 25° C., observation and XRPD", "details": "for XRPD pattern of solids after stirring in pH 7 buffer: stirred 24 hours at 25° C., solids air dried overnight (FIG. 4, FIG. 5)", "description": "Slurries of crystalline (3Z,5S)-5-(hydroxymethyl)-1-[(2′-methyl-1,1′-biphenyl-4-yl)carbonyl]pyrrolidin-3-one O-methyloxime and amorphous (3Z,5S)-5-(hydroxymethyl)-1-[(2′-methyl-1,1′-biphenyl-4-yl)carbonyl]pyrrolidin-3-one O-methyloxime were prepared by weighing directly into vials 100 mg of crystalline or amorphous material, About 3 mL of pH 7 phosphate buffer USP was added to each sample. Samples of each of the slurries were stirred in pH 7 phosphate buffer (USP) at 25° C. for 24 hours. At the end of 24 hours, the solvent was removed from the sample by pipetting out and solids allowed to air dry in the fumehood overnight. Solids were then submitted for XRPD analysis. Both the samples first appeared as white powders. Pictures of the samples were taken at time points corresponding to 0.5 min, 15 min, 1 hour, 3 hours and 24 hours after adding the pH 7 phosphate buffer."}, "[3]": {"experiment": "MB (moisture balance) of the crystalline compound from ethyl acetate", "details": "crystallized from ethyl acetate", "description": "Ethyl acetate was added to amorphous (3Z,5S)-5-(hydroxymethyl)-1-[(2′-methyl-1,1′-biphenyl-4-yl)carbonyl]pyrrolidin-3-one O-methyloxime. The suspension was sonicated in ambient bath tor 60 minutes to provide a clear solution that was further sonicated and cooled over 10 minutes. The clear solution was placed in the freezer for 4 days. The solvent was decanted and the solid was washed with hexane, then dried under nitrogen flow for 30 minutes. The resulting solid was analyzed by XRPD and confirmed to be crystalline (3Z,5S)-5-(hydroxymethyl)-1-[(2′-methyl-1,1′-biphenyl-4-yl)carbonyl]pyrrolidin-3-one O-methyloxime. FIGS. 7 and 9 are the DSC and TGA curves, respectively, obtained front testing this sample."}, "[4]": {"experiment": "Comparative stability study: slurries stirred in pH 7 phosphate buffer (USP) at 25° C., observation and XRPD", "details": "in pH 7 phosphate buffer at 25° C., T = 5 min"}, "[5]": {"experiment": "Solid stress experiments (humidity, temperature, pressure, grinding, milling; XRPD)", "description": "Solid stress experiments were conducted on crystalline (3Z,5S)-5-(hydroxymethyl)-1-[(2′-methyl-1,1′-biphenyl-4-yl)carbonyl]pyrrolidin-3-one O-methyloxime and amorphous (3Z,5S)-5-(hydroxymethyl)-1-[(2′-methyl-1,1′-biphenyl-4-yl)carbonyl]pyrrolidin-3-one O-methyloxime and the results shown below in Tables 8 and 9. […] Stressing at 97% RH for the same time caused the material to deliquesce."}, "[6]": {"details": "75% RH, amorphous starting material"}, "[7]": {"details": "10,000 psi, 1 minute, crystallized from Diethyl Ether"}, "[8]": {"details": "Ether stress, solid in solvent at ambient, 3 days (slurry)"}}, "note": "Entries after “also recorded” stand apart in the source; their conditions may differ.", "data": [{"smiles": "CO/N=C1/C[C@@H](CO)N(C(=O)c2ccc(-c3ccccc3C)cc2)C1", "note": "[(3Z,5S)-5-(hydroxymethyl)-1-[(2′-methyl-1,1′-biphenyl-4-yl)carbonyl]pyrrolidin-3-one O-methyloxime]", "values": [{"measurement": "solid form by XRPD after vacuum-drying", "setting": "[1]", "value": "does not change the solid form"}, {"measurement": "Observation of sample", "setting": "[2]; Before adding buffer, listed as Amorphous form", "value": "White power"}, {"measurement": "Observation of sample", "setting": "[2]; Before adding buffer, listed as Crystalline compound", "value": "White powder"}, {"measurement": "Observation of sample", "setting": "[2]; in pH 7 phosphate buffer at 25° C., T = 0, listed as Crystalline compound", "value": "White powder dispersed"}, {"measurement": "Observation of sample", "setting": "[2]; in pH 7 phosphate buffer at 25° C., T = 15 min, listed as Amorphous (3Z,5S)-5-(hydroxymethyl)-1-[(2-methyl-1,1′-biphenyl-4-yl)carbonyl]pyr", "value": "opaque sticky material"}, {"measurement": "Observation of sample", "setting": "[2]; in pH 7 phosphate buffer at 25° C., T = 15 min, listed as Amorphous form", "value": "Opaque sticky round lump"}, {"measurement": "Observation of sample", "setting": "[2]; in pH 7 phosphate buffer at 25° C., T = 15 min, listed as Crystalline compound", "value": "White powder dispersed"}, {"measurement": "Observation of sample", "setting": "[2]; in pH 7 phosphate buffer at 25° C., T = 1 hour, listed as Amorphous form", "value": "Opaque sticky round lump"}, {"measurement": "Observation of sample", "setting": "[2]; in pH 7 phosphate buffer at 25° C., T = 1 hour, listed as Crystalline compound", "value": "White solid round lump,"}, {"measurement": "Observation of sample", "setting": "[2]; in pH 7 phosphate buffer at 25° C., T = 1 hour, listed as crystalline (3Z,5S)-5-(hydroxymethyl)-1-[(2′-methyl-1,1-biphenyl-4-yl)carbonyl]p", "value": "white sticky material"}, {"measurement": "Observation of sample", "setting": "[2]; in pH 7 phosphate buffer at 25° C., T = 3 hours, listed as Amorphous form", "value": "Opaque sticky material"}, {"measurement": "Observation of sample", "setting": "[2]; in pH 7 phosphate buffer at 25° C., T = 3 hours, listed as Crystalline compound", "value": "White sticky material"}, {"measurement": "Observation of sample", "setting": "[2]; in pH 7 phosphate buffer at 25° C., T = 24 hours, listed as Amorphous form", "value": "Opaque sticky material"}, {"measurement": "Observation of sample", "setting": "[2]; in pH 7 phosphate buffer at 25° C., T = 24 hours, listed as Crystalline compound", "value": "White sticky material"}, {"measurement": "XRPD pattern of solids after stirring in pH 7 buffer", "setting": "[2]", "value": "peaks consistent with those seen in the powder pattern of crystalline"}, {"measurement": "XRPD pattern of solids after stirring in pH 7 buffer", "setting": "[2]; listed as amorphous (3Z,5S)-5-(hydroxymethyl)-1-[(2-methyl-1,1′-biphenyl-4-yl)carbonyl]pyr", "value": "presence of amorphous phase"}, {"measurement": "weight gain from 5% RH to 95% RH", "setting": "[3]; MB (moisture balance)", "value": "3.25% weight gain from 5% RH to 95% RH"}, {"measurement": "weight loss from 95% RH to 5% RH", "setting": "[3]; MB (moisture balance)", "value": "1.44% weight loss from 95% RH to 5% RH"}, {"measurement": "weight loss upon equilibration at 5% RH", "setting": "[3]; MB (moisture balance)", "value": "0.20% weight loss upon equilibration at 5% RH"}, {"measurement": "Post MB XRPD", "setting": "[3]; after moisture balance", "value": "Crystalline form and Amorphous"}, {"measurement": "Observation of sample", "setting": "[4]; listed as Amorphous form", "value": "Thick white sticky mass"}, {"measurement": "Observation of sample", "setting": "[4]; listed as Crystalline compound", "value": "White powder dispersed"}, {"measurement": "Habit/Description", "setting": "[5]; 40° C., 10 days", "value": "Rounded chunks"}, {"measurement": "XRPD Result", "setting": "[5]; 40° C., 10 days", "value": "Amorphous"}, {"measurement": "Habit/Description", "setting": "[5]; 40° C./75% RH, 1 day", "value": "Oil drops"}, {"measurement": "XRPD Result", "setting": "[5]; 1 minute grind (by hand), crystallized from Diethyl Ether", "value": "mixture of the crystalline compound and the amorphous compound; also recorded: Crystalline form"}, {"measurement": "Habit/Description", "setting": "[5]; 1 minute grind, crystallized from Diethyl Ether", "value": "White Solid"}, {"measurement": "Habit/Description", "setting": "[5]; 70° C., 1 day", "value": "Oil puddle"}, {"measurement": "Habit/Description", "setting": "[5]; 70° C., 6 days", "value": "Rounded chunks, clear oil drops"}, {"measurement": "XRPD Result", "setting": "[5]; 70° C., 6 days", "value": "Amorphous"}, {"measurement": "XRPD Result", "setting": "[5]; 75% RH, 3 days, crystallized from Ethyl Acetate", "value": "remained unchanged; also recorded: Crystalline form"}, {"measurement": "weight gain", "setting": "[5]; 75% RH, after 1 day", "value": 2.5, "unit": "% weight gain after 1 day"}, {"measurement": "weight gain", "setting": "[5]; 75% RH, after 5 days", "value": "3.7% weight gain after 5 days"}, {"measurement": "weight gain", "setting": "[5]; 75% RH, after 12 days", "value": "6.6% weight gain after 12 days"}, {"measurement": "weight gain", "setting": "[5]; 75% RH, after 20 days", "value": "2.9% weight gain after 20 days"}, {"measurement": "Habit/Description", "setting": "[5]; [6]", "value": "White jagged flakes, chunks, no"}, {"measurement": "XRPD Result", "setting": "[5]; [6]", "value": "Amorphous"}, {"measurement": "Habit/Description", "setting": "[5]; 97% RH, 3 days, amorphous starting material", "value": "Deliquesced"}, {"measurement": "Habit/Description", "setting": "[5]; 97% RH, 3 days, crystallized from Ethyl Acetate", "value": "Deliquesced"}, {"measurement": "Habit/Description", "setting": "[5]; [7]", "value": "White Solid"}, {"measurement": "XRPD Result", "setting": "[5]; [7]", "value": "remained in crystalline form"}, {"measurement": "Habit/Description", "setting": "[5]; [8]", "value": "White chunks, bits"}, {"measurement": "XRPD Result", "setting": "[5]; [8]", "value": "Amorphous"}, {"measurement": "Habit/Description", "setting": "[5]; Milling with 10μL toluene, after 10 minutes", "value": "Stick gum like solid after 10"}, {"measurement": "Habit/Description", "setting": "[5]; Milling with 10μL toluene, by 70 minutes", "value": "minutes, sticky film by 70 minutes"}, {"measurement": "Habit/Description", "setting": "[5]; Milling with 25 μL water, ~10 minutes", "value": "Sticky gum-like solid"}, {"measurement": "Habit/Description", "setting": "[5]; Solid wet with ethyl ether, after 1 day at ambient", "value": "Chunks, few areas of birefringence"}, {"measurement": "Habit/Description", "setting": "[5]; Solid wet with ethyl ether, after 5 days ambient", "value": "Chunks, few areas with extinguish"}]}]}
